Values joined by “and” are separate entries in the source; they are usually repeats but may differ in a detail not shown here. Identical values can stand only once.
Columns and labels:
[1] = system: Retzius cells (leech neurons); conditions: cited from earlier work; for shift of the excitation spectrum per membrane voltage: Kuhn and Fromherz, 2003
HEK293 cells [2] = assay: Voltage sensitivity in HEK293 cells by extracellular electric field, laser line scans with one- or two-photon excitation; format: cell-based
Procedure: HEK293 cells (DSMZ GmbH, Braunschweig, Germany) were cultured using standard methods on glass coverslips (diameter 24 mm, Assistent, Glaswarenfabrik Karl Hecht KG, Sondheim, Germany). The coverslips were coated with fibronectin (No. 68885, Boehringer-Mannheim, Germany) in PBS (140 mM NaCl, 2.7 mM KCl, 1.5 mM KH2PO4, 6.5 mM Na2HPO4×2H2O) by incubation for 45 min in a 10 μg/ml fibronectin solution and a single subsequent wash with PBS. The cells were plated at densities of 15000 cells per coverslip and were used for up to three days after plating, while the cell density was still low. All measurements were done in a Ringer solution containing (in mM) 135 NaCl, 5.4 KCl, 1.0 MgCl2, 1.8 CaCl2 and 5.0 Hepes, adjusted to pH 7.2 with NaOH.
ANNINE-6 (FIG. 19a) was dissolved in a solution of 20% Pluronic F-127 DMSO (P-3000, Molecular Probes, Eugene, Oreg.) at a concentration of 0.5 mg/ml and sonicated for 15 min. The glass coverslip with the HEK293 cells was taken out of the culture well, exposed to the staining solution (dye stock solution diluted 1:100 into Ringer) for 5 min and finally washed with pure Ringer solution.
To change the voltage across the cell membrane we applied an extracellular electric field. This method (Gross et al., 1986) has a somewhat reduced voltage calibration accuracy but is much simpler than whole-cell recordings, for example, permitting the transfer of the recording chamber between microscope setups thereby allowing the exploration of a wider parameter range. Our custom-made chamber (FIG. 19b) consists of a 2.6 mm wide, and 30 mm long slit in a 0.5 mm thick PMMA (Plexiglas) plate. Two chlorided silver wires (diameter 0.127 mm, Cat. No. 7860, A-M Systems, INC., Everett, Wash.) for the application of the electrical field were fixed to the long edges of the channel with two-component epoxy resin glue (plus sofortfest, UHU, Bühl, Germany). This chamber was sealed on the bottom with a clean coverslip (24 mm×50 mm) attached with silicone grease (Bayer-silicone, Bayer AG, Leverkusen, Germany). The coverslip with the stained HEK293 cells was dried around the edges to get a watertight seal with silicone grease and then mounted cells down on the top side of the chamber. Two openings allowed the continuous perfusion (about 2 ml/min) with physiological saline using a gravity-fed perfusion system.
The voltage stimuli were generated by an arbitrary waveform generator (model 395, wavetek, Ismaning, Germany) and amplified by a custom-built push-pull circuit (using two operational amplifiers, OPA547, Texas Instruments Inc., Texas, USA, FIG. 19c). To avoid electrolysis at the electrodes and ionophoresis of cell-surface components all applied voltage waveforms were purely AC. Short pulses were used to minimize heating (FIG. 19d). The application of the pulse protocol was synchronized to the start of line scan acquisition.
For one-photon excitation we used laser scanning microscopes (Zeiss LSM 510 NLO and Leica TCS SP2) with Ar-ion laser excitation (458 nm, 488 nm, or 514 nm). We used laser illumination instead of, for example, Xe arc-lamps because narrow spectral width and high intensities are needed to obtain sufficient excitation of the dye at the spectral edge. The excitation light at the Zeiss microscope was coupled in via the main dichroic beam splitters (HFT 458/514, reflecting the 458 nm and 514 nm laser lines or HFT KP 700/488, a combined 700 nm short pass and 488 nm reflector). The emitted light was filtered by a long-pass filter (LP560). The Leica microscope uses an acousto-optical main beam splitter and fluorescence was collected in the range of 520 nm to 800 nm. The maximal excitation intensities at the sample were for the Zeiss (Leica) microscope: 1.3 mW (1.5 mW) at 514 nm, 200 μW (250 μW) at 488 nm and 28 μW (35 μW) at 458 nm. The pinhole was completely opened up (8.5 airy units) to collect as much light as possible. […]

HEK293 cells [3] = assay: Tight-seal whole-cell voltage-clamp recordings of HEK293 cells, sensitivity at 514 nm; format: cell-based; conditions: four cells, voltage jumps +/−25, +/−50, +/−75 mV
Procedure: Whole-cell tight-seal voltage-clamp recordings on HEK293 cells were preformed using pipettes with a resistance of around 6 MOhm and an epc9 amplifier (HEKA, Göttingen, Germany).
To test our assumption about the extracellular stimulation the sensitivity at 514 nm was tested by controlling the membrane voltage directly using tight-seal whole-cell recordings of HEK293 cells (FIG. 22). The mean sensitivity measured in four cells using voltage jumps of +/−25, +/−50 and +/−75 mV is −0.37±0.02%/mV, in agreement with the results achieved by the external electric field method.

HEK293 cells [4] = assay: Example 4: HEK293 cells stained by bath application, alternating external electric fields, 1 kHz line scans; format: cell-based
Description: ANNINE-6 is a new, completely anellated hemicyanine dye. […] Several biological preparations were used for testing. First, HEK293 cells were stained by bath application of the dye. Alternating external electric fields generated by applying voltages between two Ag/AgCl-wires in a closed chamber (1). To achieve the high light intensities, which are necessary to excite the dye at the very red edge of the excitation spectrum, we used laser scanning microscopes with Ar-Ion Laser for one-photon excitation (488 nm, 514 nm) and Ti:Sapphire Laser for two-photon excitation (976 nm). The fluorescence changes measured with 1 kHz line scans followed the applied voltage, which was alternated every 10 ms, without discernible delay. We found relative fluorescence increases of more that 60%/100 mV for hyperpolarizing membrane potential changes and decreases of more than 40%/100 mV for depolarizing membrane potential changes at 514 nm excitation wavelength. The asymmetry of the fluorescence change is expected given the spectral shape and a pure electrochromic spectral shift. We found changes of +40%/100 mV and −30%/100 mV both for one-photon excitation at 488 nm and two-photon excitation at 976 nm. Preliminary measurements from cultured hippocampal slices using a soluble variant of ANNINE-6 show fast fluorescence changes of up to 8% upon stimulation of the Schaffer collaterals in CA1. • (1) D. Gross, L. M. Loew and W. Webb. Biophys. J., 50: 339-348, 1986.

[5] = Maximal theoretical sensitivity for excitation in the Boltzmann tail; conditions: from shift of 1.6 cm^−1/mV
Description: A common approximation used for spectral shapes is the log-normal function (Siano and Metzler, 1969), which would imply an ever increasing, in fact, diverging sensitivity toward longer wavelengths and the vanishing of excitation above a wavelength of 591 nm. However, simple considerations predict a tail in the absorption spectrum F that follows a Boltzmann distribution (Hinshelwood, 1940)
because an electronic transition between the ground and the excited state with the energy difference h ν00c (h Planck constant, ν00 wavenumber of the 00 transition, c light velocity) and an excitation energy h νc ( ν wavenumber of excitation), which is assumed to be below h ν00c, requires additional vibrational energy E=h ν00c−h νc to reach the lowest excited state, in analogy to anti-Stokes lines in scattering theory. […]
for excitation in the Boltzmann tail (Δμ is the intramolecular charge displacement upon electronic excitation, d is the membrane thickness, θ is the angle between charge displacement and membrane normal). […] For comparison: the highest measured sensitivity value was −0.52±0.05%/mV (with 2-photon excitation at 1040 nm, corresponding to 520 nm). […]

## CCCCN(CCCC)c1ccc2c(ccc3c2ccc2c4cc[n+](CCCCS(=O)(=O)[O-])cc4ccc23)c1 [ANNINE-5]
[1]
  shift of the excitation spectrum per membrane voltage: 1.3 cm^−1/mV

## CCCCCN(CCCCC)c1ccc(/C=C/C=C/c2cc[n+](CCCCS(=O)(=O)[O-])cc2)cc1 [RH-421, reference compound]
[1]
  shift of the excitation spectrum per membrane voltage: 0.5 cm^−1/mV

## CCCCN(CCCC)c1ccc2c(ccc3c2ccc2c4ccc5c[n+](CCCCS(=O)(=O)[O-])ccc5c4ccc32)c1 [ANNINE-6]
HEK293 cells [2]; 100 mV depolarization, 514 nm
  fluorescence change for large voltage swing: −28%
HEK293 cells [2]; 100 mV depolarization, 1040 nm
  fluorescence change for large voltage swing: −40%
HEK293 cells [2]; 100 mV hyperpolarization, 514 nm
  fluorescence change for large voltage swing: 50%
HEK293 cells [2]; 100 mV hyperpolarization, 1040 nm
  fluorescence change for large voltage swing: 70%
HEK293 cells [2]; 515 nm, 1-photon, dye incorporated inside the cells (as expected)
  sensitivity: 0.37 %/mV
HEK293 cells [2]; 515 nm, 2-photon, dye incorporated inside the cells (as expected)
  sensitivity: 0.52 %/mV
HEK293 cells [2]; 976 nm versus 488 nm, same cell
  2PE sensitivity higher than 1PE sensitivity at half the wavelength: about 20%
HEK293 cells [2]; after 900 line scans at 1040 nm over a period of over 2 h
  sensitivity at end of repeated line scans: −0.58±0.02 %/mV
HEK293 cells [2]; cell of FIG. 21a, one-photon 458 nm
  slope sensitivity at the resting potential, single cell: −0.16 %/mV
HEK293 cells [2]; cell of FIG. 21a, one-photon 488 nm
  slope sensitivity at the resting potential, single cell: −0.26 %/mV
HEK293 cells [2]; cell of FIG. 21a, one-photon 514 nm
  slope sensitivity at the resting potential, single cell: −0.37 %/mV
HEK293 cells [2]; cell of FIG. 23, two-photon 960 nm
  slope sensitivity at the resting potential, single cell: −0.35 %/mV
HEK293 cells [2]; cell of FIG. 23, two-photon 980 nm
  slope sensitivity at the resting potential, single cell: −0.41 %/mV
HEK293 cells [2]; cell of FIG. 23, two-photon 1000 nm
  slope sensitivity at the resting potential, single cell: −0.49 %/mV
HEK293 cells [2]; cell of FIG. 23, two-photon 1020 nm
  slope sensitivity at the resting potential, single cell: −0.54 %/mV
HEK293 cells [2]; cell of FIG. 23, two-photon 1040 nm
  slope sensitivity at the resting potential, single cell: −0.59 %/mV
HEK293 cells [2]; excitation wavelength 515 nm, 1-photon, dye at the outer side of the membrane
  sensitivity: −0.37 %/mV
HEK293 cells [2]; one-photon excitation 488 nm, four cells
  small-signal fractional fluorescence change (mean sensitivity): −0.28 %/mV and −0.28±0.03 %/mV
HEK293 cells [2]; one-photon excitation 514 nm, four cells
  small-signal fractional fluorescence change (mean sensitivity): −0.35 %/mV and −0.35±0.03 %/mV
HEK293 cells [2]; single cell, excitation at 1040 nm
  sensitivity at begin of repeated line scans: −0.59±0.01 %/mV
HEK293 cells [2]; two-photon excitation 960 nm, 4 cells
  small-signal fractional fluorescence change (mean sensitivity): −0.29 %/mV and −0.29±0.05 %/mV
HEK293 cells [2]; two-photon excitation 980 nm, 4 cells
  mean sensitivity: −0.35±0.05 %/mV
HEK293 cells [2]; two-photon excitation 1000 nm, 4 cells
  small-signal fractional fluorescence change (mean sensitivity): −0.43 %/mV and −0.43±0.05 %/mV
HEK293 cells [2]; two-photon excitation 1020 nm, 4 cells
  mean sensitivity: −0.47±0.06 %/mV
HEK293 cells [2]; two-photon excitation 1040 nm, 4 cells
  small-signal fractional fluorescence change (mean sensitivity): −0.52 %/mV and −0.52±0.06 %/mV and −0.52±0.05 %/mV
HEK293 cells [3]
  mean sensitivity with direct control of membrane voltage: −0.37±0.02 %/mV
HEK293 cells [4]; depolarizing membrane potential changes, 514 nm
  relative fluorescence decrease: more than 40 %/100 mV
HEK293 cells [4]; hyperpolarizing membrane potential changes, 514 nm
  relative fluorescence increase: > 60 %/100 mV
HEK293 cells [4]; one-photon excitation 488 nm
  relative fluorescence change, negative: −30 %/100 mV
  relative fluorescence change, positive: +40 %/100 mV
HEK293 cells [4]; two-photon excitation 976 nm
  relative fluorescence change, negative: −30 %/100 mV
  relative fluorescence change, positive: +40 %/100 mV
[5]
  Boltzmann-tail sensitivity (theoretical limit): −0.77 %/mV
[1]; 488 nm, published (Kuhn and Fromherz, 2003)
  sensitivity in Leech: −0.29 %/mV
[1]
  shift of the excitation spectrum per membrane voltage: 1.6 cm^−1/mV

## CCCCN(CCCC)c1ccc2cc(C=Cc3cc[n+](CCCCS(=O)(=O)[O-])cc3)ccc2c1 [di-4-ANEPBS, reference compound]
[1]
  shift of the excitation spectrum per membrane voltage: 0.9 cm^−1/mV
